Source: patent publication US20040132095A1, “Method of selecting antimicrobial agent and method of using the same” (priority 2001, published 2004)

Key:
[1] = test system: Chaetomium elatum; experiment: Data base search for antimicrobial agent, filamentous fungus (Example 6); type: cell-based
[2] = test system: slime; experiment: Laboratory torque type slime formation testing apparatus, artificial white water (Example 1); type: cell-based
Excerpt: A torque type slime formation testing apparatus was used, which is described in Japanese Patent Kokai Hei 9-75065 A. The testing apparatus is constructed from a stationary outer cylinder and a rotatable inner cylinder disposed concentrically with the outer cylinder leaving a free space therebetween for allowing flow of water therein while rotating the inner cylinder so as to permit to grow slime formed on the surface of the inner […]. To this testing apparatus, an artificial white water (containing 142 mg/liter of soluble starch and 11.6 mg/liter of ammonium sulfate and having a pH of 7.0) was supplied continuously at a temperature of 30° C. so as to maintain a residence time in the apparatus of 20 minutes, while adding thereto intermittently a slime control agent containing as the main component DBNPA (dibromonitrilopropionamide) three times a day each for a duration of 15 minutes at a contact concentration of 2.5 mg/liter. […] Each isolated strain was taken up on a platinum loop and was suspended in 0.4 ml of TE buffer solution (10 mM Tris-HCl, 1 mM EDTA, pH 8.0) retained allotted in a 1.5 ml microcentrifugal tube. Based on the above results, test experiment was carried out under the same experimental condition except that HPGHC was used as the slime control agent so as to maintain the concentration thereof in the system at 0.3 mg/liter. […] This HPGHC-treated slime collected at this occasion was tested by analysis of microbial biota thereof in the same manner as above, whereby Microbacterium sp. was not detected.

[3] = test system: Microbacterium sp. (microbe number 6354); experiment: Data base search for antimicrobial agent, confirmed by sterilizing experiment, dominant microbe of Example 1 slime; type: cell-based
[4] = test system: all the other isolated bacteria; experiment: Data base search / sterilizing experiment, other isolated strains of Example 1 slime; type: cell-based; details: strains isolated from slime of Example 1
[5] = test system: Deinococcus geothermalis; experiment: Data base search and sterilizing experiment, Example 2; type: cell-based; details: data base search, confirmed by sterilizing experiment
[6] = test system: pink-colored bacterial slime / Deinococcus geothermalis; experiment: Slime control treatment at paper manufacturing factory D, white water circulation system (Example 2); details: slime formed during long term slime control with DBNPA based agent
[7] = test system: slime; experiment: Monitoring demonstrators (slime testers) at paper machine of factory D (Example 3)
Protocol: Since the machine construction is similar, this machine would suffer from same trouble by occurrence of pink-colored slime after a prolonged operation. Therefore, monitoring of machine by prior practice was proceeded more […] the same time, the analysis of the microbial biota of white water same as in the above test method was performed at a more frequent interval, namely, at an interval of 7-14 days (with increase in the number of isolated strains to 48). […] On the other hand, white water devoid of DBNPA content was reserved by storing in a storage reservoir the white water taken from its supply line during a time interval discrepant from the DBNPA injection period, to preserve a reagent-free white water for the test.

[8] = test system: Deinococcus geothermalis; experiment: Analysis of microbial biota of white water of the machine, factory D (Example 3); details: DBNPA treatment
Excerpt: In the paper manufacturing factory D, another machine of a type similar to that used in Example 2 operating under conditions similar to those in Example 2 is installed adjacent to the machine of Example 2. In this machine, no occurrence of pink-colored […] recognized even at the occasion at which the pink-colored slime occurred in the machine of Example 2. Therefore, procedures corresponding to those in Example 1 were proceeded, wherein each 36 strains were isolated using agar medium and analysis of the microbial biota was carried out. Since a large number of strains are to be tested, each 16S rDNA obtained from each strain was treated by digestion with three kinds of restriction enzymes (BstUI, RsaI and HhaI) isolatedly to effect TRFLP analysis, in order to group preliminarily into classes of microbes of same reaction pattern, whereupon identification was effected based on the base sequence as identification parameter. It was recognized thereby that the occupation proportion of Deinococcus geothermalis in the isolated 36 strains was calculated to be only 2.7% (one strain). Since the machine construction is similar, this machine would suffer from same trouble by occurrence of pink-colored slime after a prolonged operation. […]

[9] = test system: microbe belonging to a genus Microbacterium (microbe number 2401); experiment: Data base search for antimicrobial agent, dominant microbe of yellow-colored slime (Example 4); type: cell-based
[10] = test system: Acidovorax temperans; experiment: Data base search and sterilizing experiment (Example 9); type: cell-based
[11] = test system: Gram-negative bacterium near-related to Riemerella; experiment: as above; type: cell-based
[12] = test system: Sphingomonas; experiment: as above; type: cell-based
[13] = test system: Rhizobium sp.; experiment: as above; type: cell-based
[14] = test system: Deinococcus geothermalis; experiment: as above; type: cell-based
[15] = test system: slime in CP tube; experiment: Slime control treatment of clear white water pit / CP line, paper machine Y (Example 11); details: intermittent introduction into the clear white water pit twice a day
Protocol: In a paper machine Y (a daily throughput of 410 tons, slightly coated paper, pH 7.5) of a paper manufacturing factory B, occurrence of light brown-colored defects having sizes of about 5 mm diameter was recognized frequently since 11th day from the start of operation, caused to result in cessation of operation. The defect portions were cut out from the paper and three cut out pieces (about 8.1 mg) were cut into 2 mm squares, which were placed in a 2 ml microcentrifugal tube made of plastic material. To this tube, 1 ml of a DNA-extracting buffer solution (100 mM Tris-Cl, 100 mM EDTA-Na, 100 mM Na2HPO4 and 1.5 M NaCl (pH 8.0)) was added, followed by standing still at room temperature for 30 minutes to cause the paper pieces to be impregnated sufficiently with the solution.
From the above analysis results, it was assumed that the defect was caused by introduction of the slime formed in CP tube into the papermaking process course upon detachment or the like. In the CP line, clear white water obtained by treating white water through a polydiscfilter was used, which had hitherto not been subjected to a slime control treatment. Therefore, treatment was now applied by intermittent introduction of a slime control agent containing as the main component 2,2-dibromo-3-nitrilopropionamide into the clear white water pit twice a day.

[16] = test system: Deinococcus geothermalis; experiment: Origin treatment of wet broke chest in paper manufacturing process, Deinococcus geothermalis among 48 isolated strains (Example 9)
Protocol: (§1) Samples were collected at various locations in the paper manufacturing process courses and, for each of them, total microbe cell count was measured by microscope direct count method after staining with DAPI, whereupon 48 strains were isolated by agar plate culture to determine the proportion of existence of Deinococcus geothermalis among the 48 strains based on the base sequence of 16S rDNA. Based on the results of the search for slime conrol agent, the treatment scheme was revised to the operation in which a slime control agent containing HPGHC as the effective component is added as the origin treating agent to the wet broke chest three times a day each at a dose rate of 25 milligrams per liter of the retained liquor (chest capacity), while supplying the white water circulation system with a slime control agent containing DBNPA as the effective component in the conventional manner. At the occasion of the second shut down after the revision of the treatment scheme and at an occasion directly before it, samples were collected at various locations in the paper manufacturing process courses, for which total microbe cell count and the proportion of existence of Deinococcus geothermalis were determined in the same way as the former practice. It was found thereby that the total microbe counts were unchanged and within the range of ordinary fluctuation, but Deinococcus geothermalis became undetectable.

[17] = test system: total microbe cells / slime; experiment: Origin treatment of wet broke chest in paper manufacturing process, total cell count and slime deposition (Example 9)
Protocol: as §1

[18] = test system: Ralstonia eutropha; type: cell-based; details: data base search
[19] = DBNPA 2 mg/l or even lower, contact time 30 minutes
[20] = after HPGHC origin treatment plus DBNPA
[21] = after HPGHC origin treatment plus DBNPA, Clear white water in clear white water pit
[22] = after HPGHC origin treatment plus DBNPA, Dry broke chest
[23] = after HPGHC origin treatment plus DBNPA, Wet broke chest
[24] = after HPGHC origin treatment plus DBNPA, White water in white water silo
[25] = second shut down after revision of the treatment scheme (HPGHC to wet broke chest plus DBNPA)

In the case of O=C(CBr)OCC=CCOC(=O)CBr [BBAB, 1,4-bis-(bromoacetoxy)-2-butene], the “susceptibility of Chaetomium elatum” value [1] was “non-susceptible”.
With N#CC(Br)(Br)C(N)=O [DBNPA, 2,2-dibromo-3-nitrilopropionamide] the slime layer thickness ([2]; DBNPA 2.5 mg/liter contact concentration, three times a day for 15 minutes, 12 days, pH 7.0, 30° C.) was 119 μm, the “resistance of Microbacterium sp. to the agent” value ([3]; data base search, confirmed by sterilizing experiment) was “resistance” and the “susceptibility of all other isolated bacterium strains” value [4] was “susceptible”. The “resistance of Deinococcus geothermalis” value [5] was “resistant”, the “occupation proportion of Deinococcus geothermalis in the entire microbe population” value [6] was 46% and the “sign of growth of slime in demonstrator” value ([7]; fifth test cycle, 47th day, No. 3 demonstrator inorganic bromine compound, No. 1 and No. 2 demonstrators DBNPA) was “sign of growth of slime was recognized”. The “deposited amount of slime in No. 2 demonstrator” value ([7]; simulator supplied with DBNPA-containing agent, after the change of the machine agent) was “increased gradually”, the “occurrence of pink-colored slime in No. 2 demonstrator” value ([7]; simulator supplied with DBNPA-containing agent, day after the change of the antimicrobial agent) was “visually recognized on the 14th day” and the “occupation proportion of Deinococcus geothermalis” value ([8]; fifth test cycle on the 47th day, 6 of 48 strains) was 12.5%. For the same compound, the “occupation proportion of Deinococcus geothermalis” value ([8]; up to the fourth test cycles, 48 strains) was 2-4%, the “resistance of dominant microbe (microbe number 2401)” value [9] was “resistance” and the “susceptibility of Chaetomium elatum” value [1] was “non-susceptible”. The “living microbe cells extinct” value [10, 19] was 99%, the “susceptibility of Acidovorax temperans” value ([10]; data base search) was “susceptible” and the “living microbe cells extinct” value [11, 19] was 99%. For the same compound, the “susceptibility of Gram-negative bacterium near-related to Riemerella” value ([11]; data base search) was “susceptible”, the “living microbe cells extinct” value [12, 19] was 99% and the “susceptibility of Shingomonas” value ([12]; data base search) was “susceptible”. The “living microbe cells extinct” value [13, 19] was 99%, the “susceptibility of Rhizobium Sp.” value ([13]; data base search) was “susceptible” and the “sterilization of Deinococcus geothermalis” value ([14]; DBNPA 30 mg/l for 30 minutes) was “completely not sterilized”. The “resistance of Deinococcus geothermalis” value ([14]; data base search) was “resistant”, the “occurrence of defect on paper” value [15] was “removed” and the “occurrence of slime formation in the CP tube” value [15] was “decreased remarkably”.
O=C(C(Cl)=NO)c1ccc(O)cc1 [HPGHC, 2-(p-hydroxyphenyl)glyoxylohydroximoyl chloride] was tested, and the “Microbacterium sp. in treated slime (analysis of microbial biota)” value ([2]; HPGHC 0.3 mg/liter) was “not detected”, the “amount of cling substance” value ([2]; HPGHC 0.3 mg/liter) was “remarkably decreased” and the slime thickness ([2]; HPGHC maintained at 0.3 mg/liter in the system, same test period (12 days)) was 3 μm. For the same compound, the minimum effective concentration ([3]; from data base for search for antimicrobial agent) was 0.2 mg/L, the “susceptibility of all other isolated bacterium strains” value [4] was “susceptible” and the “sterilization of Deinococcus geothermalis” value ([14]; HPGHC system internal concentration 20 mg/l for 20 minutes, data base) was “sterilized”. For the same compound, the “Deinococcus geothermalis in cling substance from the suction box” value [16, 20] was “no Deinococcus geothermalis detected”, the “Number of strains of Deinococcus geothermal is (number of colonies among 48 strains)” value (from here on “Number … (number of colonies among 48 strains)”) [16, 21] was 0 and the “Number … (number of colonies among 48 strains)” value [16, 22] was 0. For the same compound, the “Number … (number of colonies among 48 strains)” value [16, 23] was 0, the “Number … (number of colonies among 48 strains)” value [16, 24] was 0 and the “Deinococcus geothermalis in samples from process courses” value [16, 25] was “undetectable”. The “amount of deposition of slime” value ([17]; HPGHC 25 mg per liter to wet broke chest three times a day plus DBNPA to white water circulation system) was “reduced considerably”, the “total microbe cell count in cling substance from the suction box” value [17, 20] was 3.5×10^9 cells per one gram of dry substance and the Total cell count [17, 21] was 3.1 × 10^7 cells/ml. For the same compound, the Total cell count [17, 22] was 6.0 × 10^7 cells/ml, the Total cell count [17, 23] was 5.3 × 10^7 cells/ml and the Total cell count [17, 24] was 4.8 × 10^7 cells/ml. For the same compound, the total microbe counts [17, 25] was “unchanged”.
OCl [sodium hypochlorite] was tested, and the “ranking of effectiveness for registered Ralstonia eutropha” value [18] was “most effective”.
